Columns and labels:
[1] = biological target: Adrenergic receptor alpha-2 (Homo sapiens) (UniProt P08913+P18825+P18089); assay: In vitro alpha 2 adrenergic activity uin phenozybenzamine pretreated dog saphenous vein expressed as percent maximum response of the tissue to norepinephrine.; assay type: functional, tissue-based; conditions: Canis lupus familiaris
[2] = biological target: T1, Adrenergic receptor alpha (Homo sapiens) (UniProt P35348+P08913+P18825+P25100+P35368+P18089); assay: Ratio of Ki of alpha-1 to Ki of alpha-2 adrenoceptor; assay type: protein assay
[3] = Ratio of ED50 of NE to ED50 of CPD from Rabbit aorta alpha-1 adrenoceptor; assay type: tissue-based
[4] = biological target: T2, Adrenergic receptor alpha-1 (Homo sapiens, UniProt P35348+P25100+P35368); assay: Binding affinity towards alpha 1 adrenergic receptor; assay type: protein assay, Oryctolagus cuniculus
T2 sequence (P35348 whole entry): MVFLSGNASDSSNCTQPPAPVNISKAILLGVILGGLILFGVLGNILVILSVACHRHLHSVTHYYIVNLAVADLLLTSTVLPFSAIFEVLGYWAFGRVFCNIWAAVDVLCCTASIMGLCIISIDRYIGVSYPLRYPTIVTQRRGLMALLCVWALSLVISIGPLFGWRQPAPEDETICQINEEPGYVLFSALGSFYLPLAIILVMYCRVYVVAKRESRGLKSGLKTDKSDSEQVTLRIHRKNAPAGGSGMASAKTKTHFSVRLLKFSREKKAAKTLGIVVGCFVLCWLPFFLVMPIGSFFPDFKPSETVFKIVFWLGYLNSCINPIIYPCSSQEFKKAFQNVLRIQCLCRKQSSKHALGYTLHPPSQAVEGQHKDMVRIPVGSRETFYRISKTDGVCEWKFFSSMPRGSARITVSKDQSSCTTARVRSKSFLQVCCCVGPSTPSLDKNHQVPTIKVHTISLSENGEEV
T2 sequence (P25100 whole entry): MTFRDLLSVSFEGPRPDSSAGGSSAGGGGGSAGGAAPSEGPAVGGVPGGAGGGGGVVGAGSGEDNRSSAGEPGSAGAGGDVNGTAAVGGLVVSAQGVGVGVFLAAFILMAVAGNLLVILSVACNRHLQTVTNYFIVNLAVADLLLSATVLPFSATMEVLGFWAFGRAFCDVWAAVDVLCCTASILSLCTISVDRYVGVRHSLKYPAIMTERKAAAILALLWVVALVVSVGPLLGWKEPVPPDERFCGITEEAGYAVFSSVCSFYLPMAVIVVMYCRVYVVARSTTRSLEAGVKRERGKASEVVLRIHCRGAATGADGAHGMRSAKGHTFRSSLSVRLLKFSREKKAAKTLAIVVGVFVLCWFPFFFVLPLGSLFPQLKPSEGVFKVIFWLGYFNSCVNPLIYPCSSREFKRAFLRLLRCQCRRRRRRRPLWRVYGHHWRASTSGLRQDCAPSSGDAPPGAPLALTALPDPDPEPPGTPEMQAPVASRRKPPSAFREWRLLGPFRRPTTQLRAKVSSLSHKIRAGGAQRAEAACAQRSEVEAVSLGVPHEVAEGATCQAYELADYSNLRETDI
T2 sequence (P35368 whole entry): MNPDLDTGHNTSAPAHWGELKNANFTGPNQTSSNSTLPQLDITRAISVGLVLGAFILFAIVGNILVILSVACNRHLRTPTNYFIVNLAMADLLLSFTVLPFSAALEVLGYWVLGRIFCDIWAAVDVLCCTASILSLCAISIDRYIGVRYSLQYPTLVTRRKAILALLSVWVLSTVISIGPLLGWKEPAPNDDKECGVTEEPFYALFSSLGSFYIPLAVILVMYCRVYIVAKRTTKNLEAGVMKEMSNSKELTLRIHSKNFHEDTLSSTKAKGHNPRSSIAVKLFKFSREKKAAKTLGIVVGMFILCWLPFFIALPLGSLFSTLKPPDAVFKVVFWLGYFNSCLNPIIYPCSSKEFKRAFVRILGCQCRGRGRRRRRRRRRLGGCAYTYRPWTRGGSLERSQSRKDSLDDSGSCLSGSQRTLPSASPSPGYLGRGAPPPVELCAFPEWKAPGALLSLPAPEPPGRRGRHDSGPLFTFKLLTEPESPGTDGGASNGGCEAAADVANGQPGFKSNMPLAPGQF

[5] = biological target: T3, Adrenergic receptor alpha-2 (Homo sapiens, UniProt P08913+P18825+P18089); assay: Binding affinity towards alpha 2 adrenergic receptor; assay type: protein assay, Canis lupus familiaris
T3 sequence (P08913 whole entry): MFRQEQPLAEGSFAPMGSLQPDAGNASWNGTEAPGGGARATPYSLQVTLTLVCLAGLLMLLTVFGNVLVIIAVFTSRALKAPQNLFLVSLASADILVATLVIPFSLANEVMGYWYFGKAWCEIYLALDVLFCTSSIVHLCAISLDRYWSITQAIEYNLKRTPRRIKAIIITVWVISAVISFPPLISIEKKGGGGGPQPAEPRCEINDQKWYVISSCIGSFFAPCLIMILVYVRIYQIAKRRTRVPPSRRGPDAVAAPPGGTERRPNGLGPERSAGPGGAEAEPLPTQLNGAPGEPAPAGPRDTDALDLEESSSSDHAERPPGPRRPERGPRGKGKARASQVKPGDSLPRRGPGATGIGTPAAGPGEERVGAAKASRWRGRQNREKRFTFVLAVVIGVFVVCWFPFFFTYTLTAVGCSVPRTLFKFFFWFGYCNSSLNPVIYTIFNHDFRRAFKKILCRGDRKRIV
T3 sequence (P18825 whole entry): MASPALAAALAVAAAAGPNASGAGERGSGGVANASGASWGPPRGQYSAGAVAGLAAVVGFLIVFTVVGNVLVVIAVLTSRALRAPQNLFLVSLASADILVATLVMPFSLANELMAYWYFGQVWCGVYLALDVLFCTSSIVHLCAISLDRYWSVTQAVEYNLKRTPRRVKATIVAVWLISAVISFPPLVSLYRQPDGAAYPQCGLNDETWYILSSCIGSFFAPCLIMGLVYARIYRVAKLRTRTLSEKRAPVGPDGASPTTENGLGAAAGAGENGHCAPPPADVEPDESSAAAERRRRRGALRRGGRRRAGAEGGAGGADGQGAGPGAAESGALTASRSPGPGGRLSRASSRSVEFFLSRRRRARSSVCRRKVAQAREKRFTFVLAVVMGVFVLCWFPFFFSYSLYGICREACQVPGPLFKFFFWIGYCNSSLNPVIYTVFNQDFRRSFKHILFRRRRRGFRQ
T3 sequence (P18089 whole entry): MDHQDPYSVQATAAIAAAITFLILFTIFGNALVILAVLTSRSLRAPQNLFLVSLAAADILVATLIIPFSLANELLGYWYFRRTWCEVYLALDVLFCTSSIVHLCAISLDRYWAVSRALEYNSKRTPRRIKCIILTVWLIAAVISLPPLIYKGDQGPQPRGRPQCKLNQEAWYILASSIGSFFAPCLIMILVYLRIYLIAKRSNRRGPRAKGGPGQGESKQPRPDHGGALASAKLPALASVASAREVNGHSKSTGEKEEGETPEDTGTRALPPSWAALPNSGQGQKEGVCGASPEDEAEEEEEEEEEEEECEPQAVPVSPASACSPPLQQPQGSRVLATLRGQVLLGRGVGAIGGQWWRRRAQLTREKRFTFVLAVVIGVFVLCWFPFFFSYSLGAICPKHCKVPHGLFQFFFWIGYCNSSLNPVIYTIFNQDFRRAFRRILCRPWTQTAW

[6] = biological target: Adrenergic receptor alpha-1 (Homo sapiens) (UniProt P35348+P25100+P35368); assay: In vitro alpha 1 adrenergic activity using isolated rabbit aorta expressed as percent maximum response of the tissue to norepinephrine.; assay type: functional, tissue-based; conditions: Oryctolagus cuniculus
[7] = biological target: T1, Adrenergic receptor alpha (Homo sapiens); assay: In vitro alpha-2 selectivity which is the measure of Ratio of Ki of alpha-1 adrenoceptor to Ki of alpha-2 adrenoceptor; assay type: protein assay
[8] = Ratio of ED50 of NE to ED50 of CPD from PBZ-pretreated dog alpha-2 adrenoceptor

SMILES	Emax [1]	Ratio [2]	Ratio [3]	Ki [4] [nM]	Ki [5] [nM]	Emax [6]	Ratio [7]	Ratio [8]
CNCC1CCc2c1ccc(O)c2O (stereo not given)	81	323	0.27	2000	7	109	110	29.6
NCC1OCc2cc(O)c(O)cc21 (stereo not given)	–	9.7	–	99000	13000	–	–	–
CCCN(CCC)CC1OCc2c1ccc(O)c2O (stereo not given)	–	15	–	10300	670	–	–	–
CNCC1OCc2c1ccc(O)c2O (stereo not given)	94	112	0.32	1970	18	126	5.3	1.69
NCC1CCc2cc(O)c(O)cc21 (stereo not given)	–	50	–	26000	520	–	–	–
CN(C)CC1CCc2c1ccc(O)c2O (stereo not given)	101	276	0.27	6900	25	105	7.6	2.05
NCC1OCc2c1ccc(O)c2O (stereo not given)	90	127	0.04	9800	77	107	36.3	1.45
CCCN(CCC)CC1CCc2c1ccc(O)c2O (stereo not given)	–	16	–	7400	470	–	–	–
NCC1CCc2c1ccc(O)c2O (stereo not given)	91	145	0.017	2250	15	102	209	3.55
CN(C)CC1OCc2c1ccc(O)c2O (stereo not given)	107	109	1	1160	10.7	114	4	4

Source: ChEMBL document CHEMBL1123666, “Conformationally defined adrenergic agents. 4. 1-(aminomethyl)phthalans: synthesis and pharmacological consequences of the phthalan ring oxygen atom” (J Med Chem, 1987)
